What was measured:
His-CHK1 = biological target: T1, His-CHK1 (Homo sapiens, UniProt O14757); assay: CHK1 SPA assay (recombinant His-CHK1, biotinylated CDC25C peptide, 33P-ATP)
T1 sequence (O14757 1-265 limits assumed): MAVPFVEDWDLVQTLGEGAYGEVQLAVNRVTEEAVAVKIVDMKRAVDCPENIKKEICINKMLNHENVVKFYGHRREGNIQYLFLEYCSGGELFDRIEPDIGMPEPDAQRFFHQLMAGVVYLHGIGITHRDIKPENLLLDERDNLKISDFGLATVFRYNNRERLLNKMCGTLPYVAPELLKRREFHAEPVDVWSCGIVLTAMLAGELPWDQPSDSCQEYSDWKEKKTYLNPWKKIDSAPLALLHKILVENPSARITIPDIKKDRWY

Cyclin E/CDK2 = biological target: T2, Cyclin E/CDK2 (Homo sapiens, UniProt P24941); assay: CDK2 assay (Cyclin E/CDK2 in vitro kinase SPA assay, biotinylated Histone H1 peptide); assay type: biochemical; details: read-out: CDK2 IC 50
T2 construct: made in house; host or cells: SF9 insect cells, baculovirus co-infection

Row | SMILES | IC50 (His-CHK1) | IC50 (Cyclin E/CDK2)
1 | Cn1cc(-c2cnc3c(Nc4ccns4)nc(CCN)cn23)cn1 | 0.017 µM | 0.55 µM
2 | CCN(CC)S(=O)(=O)c1sc(Nc2nc(C3=CCCNC3)cn3c(-c4cnn(C)c4)cnc23)cc1C | – | 8.28 µM
3 | Cc1cc(Nc2nc(C3=CCCNC3)cn3c(-c4cnn(C)c4)cnc23)sc1S(=O)(=O)N1CCOCC1 | – | 6.95 µM
